For 38 molecules, IC50 results are on record in patent publication US12275719B2, “Small molecule inhibitors of galectin-3” (BRISTOL-MYERS SQUIBB COMPANY, priority 2019, dated 2025).

This test deals with His-tagged recombinant human Gal-3 (hGal-3) (Homo sapiens, UniProt P17931). As to the kind of experiment: Gal-3 HTRF assay (hGal-3 / B-ASF binding inhibition). As to the method: ASSAY BUFFER Composition: 25 mM HEPES, 100 mM NaCl, 0.005% Tween 20, 0.05% BSA prepared in sterile water (all reagents from Sigma).
Chain of His-tagged recombinant human Gal-3 (hGal-3) (P17931 whole entry): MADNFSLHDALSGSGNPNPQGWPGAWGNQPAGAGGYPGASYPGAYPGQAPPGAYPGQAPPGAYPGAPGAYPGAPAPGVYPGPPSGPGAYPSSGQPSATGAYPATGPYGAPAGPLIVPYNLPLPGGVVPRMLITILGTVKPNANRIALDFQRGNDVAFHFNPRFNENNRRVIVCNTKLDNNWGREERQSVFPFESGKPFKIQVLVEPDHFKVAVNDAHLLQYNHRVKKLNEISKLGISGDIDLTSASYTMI
Positive Control: 100% DMSO (1 μL)+His-tagged hGal-3 (20 μL)+β-ASF (20 μL)+Anti-His Terbium Antibody (5 μL)+Strep d2 Antibody (5 μL).
Negative Control: 100% DMSO (1 μL)+His-tagged hGal-3 (20 μL)+Anti His Terbium Antibody (5 μL)+Strep d2 Aantibody (5 μL).
PROTOCOL: The Gal-3 assays were performed in 384 white Opti plates in three replicates at room temperature with gentle shaking at 250-300 rpm From the original stocks, […] working stock concentrations of His-tagged recombinant human Gal-3 (hGal-3) and that of B-ASF were prepared. From the working stock, 20 μL of hGal-3 (15 nM) and 20 μL B-ASF (15 nM) were added to the plates. In Negative Control, only hGal-3 was added. A concentration range of 50× working stocks were prepared for the compounds in 100% DMSO. Aliquots of 1 μL of the compounds were added to the wells and pre-incubated with 20 μL hGal-3 per well for 30 minutes Then 20 μL B-ASF were added and incubated for another 1 hour. To detect the signal, 5 μL (final conc. of 1.0 nM) terbium labelled Anti-His antibody was added and incubated for 30 min followed by adding 5 μL (final conc. of 20 nM) Streptavidin d2 and incubation for another 1 hour. The assay signal was detected using HTRF screen protocol (Excitation wavelength=340 nm, emission wavelength=615 nm/665 nm) on Envision 2104 Multilabel Reader. Data analysed using Toolset and Curve Master. Results are reported in the experimental section (IC50 in μM).

The mark [1] stands for this setting: Examples 26 to 29 and 66 to 68, HTRF, 15 nM hGal-3, 15 nM B-ASF.
The mark [2] stands for this setting: text of Examples 1 to 4, HTRF, 15 nM hGal-3, 15 nM B-ASF.

In the case of `Cc1nc2ccc(-n3cnnc3[C@@H]3O[C@H](CO)[C@H](O)[C@H](n4cc(-c5cc(F)c(Cl)c(Cl)c5)nn4)[C@H]3O)cc2s1` [Example 74], the IC50 (table of Examples 69 to 75) was 35 nM.
Turning to `OC[C@H]1O[C@@H](c2nncn2-c2cc(Cl)ccc2OC(F)(F)F)[C@H](O)[C@@H](n2cc(-c3ccc(Br)c(F)c3F)nn2)[C@H]1O` [Example 38], for the setting “table of Examples 30 to 65”, the half-inhibitory concentration (IC50) turned out to be 11 nM.
Regarding `OC[C@H]1O[C@@H](c2nncn2-c2cc(Cl)ccc2C(F)(F)F)[C@H](OCC(F)(F)F)[C@@H](n2cc(-c3ccc(Br)c(F)c3F)nn2)[C@H]1O` [Example 58], where the note is “table of Examples 30 to 65”, the IC50 stood at 14 nM.
With `Cc1nc2ccc(-n3cnnc3[C@@H]3O[C@H](CO)[C@H](O)[C@H](n4cc(-c5ccc(Br)c(F)c5F)nn4)[C@H]3OCC(F)F)cc2s1` [Example 71], the IC50 (table of Examples 69 to 75) is 20 nM.
Same read-out and setting: the value for `Cc1nc2ccc(-n3cnnc3[C@@H]3O[C@H](CO)[C@H](O)[C@H](n4cc(-c5cc(F)c(Cl)c(Cl)c5)nn4)[C@H]3OCC(=O)O)cc2s1` [Example 75] was 18 nM.
`OC[C@H]1O[C@@H](c2nncn2-c2cc(Cl)ccc2C(F)(F)F)[C@H](OCC(F)F)[C@@H](n2cc(-c3ccc(Br)c(F)c3F)nn2)[C@H]1O` [Example 29, (2R,3R,4S,5R,6S)-4-(4-(4-bromo-2,3-difluorophenyl)-1H-1,2,3-triazol-1-yl)-6-(4-(5-chloro-2-(trifluoromethyl)phenyl)-4H-1,2,4-triazol-3-yl)-5-(2,2-difluoroethoxy)-2-(hydroxymethyl)tetrahydro-2H-pyran-3-ol]: under setting [1], the IC50 came to 11 nM.
As for `OC[C@H]1O[C@@H](c2nncn2-c2cc(Cl)ccc2C(F)(F)F)[C@H](OCC(F)F)[C@@H](n2cc(-c3ccc(Br)c(F)c3)nn2)[C@H]1O` [Example 62], the IC50 (table of Examples 30 to 65) worked out at 40 nM.
As for `OC[C@H]1O[C@@H](c2nncn2-c2cc(Cl)ccc2OC(F)(F)F)[C@H](O)[C@@H](n2cc(-c3ccc(Cl)c(F)c3F)nn2)[C@H]1O` [Example 51], under “table of Examples 30 to 65”, the IC50 is 14 nM.
In the case of `Cc1nc([C@@H]2O[C@H](CO)[C@H](O)[C@H](n3cc(-c4ccc(Cl)c(C)c4F)nn3)[C@H]2O)n(-c2cc(Cl)ccc2C(F)(F)F)n1` [Example 17], the IC50 (table of Examples 5 to 25) amounted to 18 nM.
For the molecule `CO[C@@H]1[C@@H](n2cc(-c3ccc(Br)c(F)c3F)nn2)[C@@H](O)[C@@H](CO)O[C@H]1c1nc(C)nn1-c1ccc2ncsc2c1` [Example 2, (2R,3R,4S,5R,6S)-6-(1-(Benzo[d]thiazol-6-yl)-3-methyl-1H-1,2,4-triazol-5-yl)-4-(4-(4-bromo-2,3-difluorophenyl)-1H-1,2,3-triazol-1-yl)-2-(hydroxymethyl)-5-methoxytetrahydro-2H-pyran-3-ol], the IC50 under setting [2] was found to be 13 nM.
As for `CO[C@@H]1[C@@H](n2cc(-c3ccc(Br)c(F)c3F)nn2)[C@@H](O)[C@@H](CO)O[C@H]1c1nncn1-c1cc(Cl)ccc1OC(F)(F)F` [Example 48], the IC50 (table of Examples 30 to 65) is 14 nM.
Turning to `COc1c(Cl)ccc(-c2cn([C@H]3[C@@H](O)[C@@H](CO)O[C@@H](c4nc(C)nn4-c4cc(Cl)ccc4C(F)(F)F)[C@@H]3O)nn2)c1F` [Example 14], the IC50 (table of Examples 5 to 25) turned out to be 137 nM.
On the same count and under the same terms, the value for `Cc1nc([C@@H]2O[C@H](CO)[C@H](O)[C@H](n3cc(-c4ccc(Br)c(F)c4F)nn3)[C@H]2O)n(-c2cc(Cl)ccc2C2CC2)n1` [Example 23] was 20 nM; that for `Cc1nc([C@@H]2O[C@H](CO)[C@H](O)[C@H](n3cc(-c4ccc(Cl)c(Cl)c4F)nn3)[C@H]2O)n(-c2cc(Cl)ccc2C(F)(F)F)n1` [Example 7] was 6 nM.
In the case of `CO[C@@H]1[C@@H](n2cc(-c3ccc(Cl)c(F)c3F)nn2)[C@@H](O)[C@@H](CO)O[C@H]1c1nncn1-c1cc(Cl)ccc1OC(F)(F)F` [Example 56], the IC50 (table of Examples 30 to 65) stood at 11 nM.
Take `CO[C@@H]1[C@@H](n2cc(-c3ccc(Br)c(F)c3F)nn2)[C@@H](O)[C@@H](CO)O[C@H]1c1nncn1-c1cc(Cl)ccc1C(F)(F)F` [Example 35]: the IC50 (table of Examples 30 to 65) is 9.3 nM.
As for `CO[C@@H]1[C@@H](n2cc(-c3c(F)c(F)c(Br)c(F)c3F)nn2)[C@@H](O)[C@@H](CO)O[C@H]1c1nncn1-c1cc(Cl)ccc1OC(F)(F)F` [Example 55], the IC50 (table of Examples 30 to 65) was found to be 11 nM.
Still for that read-out and setting: with `CO[C@@H]1[C@@H](n2cc(-c3cc(F)c(Cl)c(Cl)c3)nn2)[C@@H](O)[C@@H](CO)O[C@H]1c1nncn1-c1cc(Cl)ccc1C(F)(F)F` [Example 36] the figure was 35 nM.
On to `COc1cc(-c2cn([C@H]3[C@@H](O)[C@@H](CO)O[C@@H](c4nc(C)nn4-c4cc(Cl)ccc4C(F)(F)F)[C@@H]3O)nn2)cc(F)c1Br` [Example 19], for which, under “table of Examples 5 to 25”, the IC50 amounted to 23 nM.
For the molecule `Cc1nc([C@@H]2O[C@H](CO)[C@H](O)[C@H](n3cc(-c4ccc(Br)c(F)c4C)nn3)[C@H]2O)n(-c2cc(Cl)ccc2C(F)(F)F)n1` [Example 16], where the note is “table of Examples 5 to 25”, the half-maximal inhibitory concentration (IC50) worked out at 74 nM.
Regarding `Cc1nc([C@@H]2O[C@H](CO)[C@H](O)[C@H](n3cc(-c4ccc(C#N)c(F)c4F)nn3)[C@H]2O)n(-c2cc(Cl)ccc2C(F)(F)F)n1` [Example 13], the IC50 (table of Examples 5 to 25) is 19 nM.
Consider `OC[C@H]1O[C@@H](c2nncn2-c2cc(Cl)ccc2OC(F)(F)F)[C@H](OCC(F)(F)F)[C@@H](n2cc(-c3ccc(Br)c(F)c3F)nn2)[C@H]1O` [Example 59], for which the IC50 (table of Examples 30 to 65) is 57 nM.
For the molecule `CNCCN(C)C(=O)CO[C@@H]1[C@@H](n2cc(-c3cc(F)c(Cl)c(F)c3)nn2)[C@@H](O)[C@@H](CO)O[C@H]1c1nncn1-c1ccc2nc(C)sc2c1` [Example 73], the IC50 (table of Examples 69 to 75) is 54 nM.
For `OC[C@H]1O[C@@H](c2nncn2-c2cc(Cl)ccc2C(F)(F)F)[C@H](O)[C@@H](n2cc(-c3c(F)c(F)c(Br)c(F)c3F)nn2)[C@H]1O` [Example 37], under “table of Examples 30 to 65”, the IC50 came out at 5.7 nM.
In the case of `Cc1nc([C@@H]2O[C@H](CO)[C@H](O)[C@H](n3cc(-c4ccc5ccccc5c4F)nn3)[C@H]2O)n(-c2cc(Cl)ccc2C(F)(F)F)n1` [Example 6], the IC50 (table of Examples 5 to 25) amounted to 62 nM.
As to `Cc1nc([C@@H]2O[C@H](CO)[C@H](O)[C@H](n3cc(-c4ccc(Cl)c(F)c4Cl)nn3)[C@H]2O)n(-c2cc(Cl)ccc2C(F)(F)F)n1` [Example 11], the IC50 (table of Examples 5 to 25) came out at 14 nM.
As for `OC[C@H]1O[C@@H](c2nncn2-c2cc(Cl)cc3cccnc23)[C@H](OCC(F)F)[C@@H](n2cc(-c3cc(F)c(Br)c(F)c3)nn2)[C@H]1O` [Example 69], the IC50 (table of Examples 69 to 75) amounted to 130 nM.
For `Cc1nc([C@@H]2O[C@H](CO)[C@H](O)[C@H](n3cc(-c4ccc(Br)c(Cl)c4F)nn3)[C@H]2O)n(-c2cc(Cl)ccc2C(F)(F)F)n1` [Example 15], where the note is “table of Examples 5 to 25”, the IC50 amounted to 96 nM.
Turning to `OC[C@H]1O[C@@H](c2nncn2-c2cc(Cl)ccc2C(F)(F)F)[C@H](OCC(F)(F)C(F)F)[C@@H](n2cc(-c3ccc(Br)c(F)c3F)nn2)[C@H]1O` [Example 65], for the setting “table of Examples 30 to 65”, the IC50 was 18 nM.
Turning to `CO[C@@H]1[C@@H](n2cc(-c3ccc(Br)c(F)c3)nn2)[C@@H](O)[C@@H](CO)O[C@H]1c1ncnn1-c1cc(Cl)ccc1C(F)(F)F` [Example 30], under “table of Examples 30 to 65”, the IC50 was found to be 22 nM.
Still for that read-out and setting: with `OC[C@H]1O[C@@H](c2nncn2-c2cc(Cl)ccc2C(F)(F)F)[C@H](OCC(F)(F)F)[C@@H](n2cc(-c3ccc(Br)c(F)c3)nn2)[C@H]1O` [Example 63] the figure was 78 nM; with `OC[C@H]1O[C@@H](c2nncn2-c2cc(Cl)ccc2OC(F)(F)F)[C@H](OCC(F)(F)C(F)F)[C@@H](n2cc(-c3ccc(Br)c(F)c3F)nn2)[C@H]1O` [Example 61], 49 nM.
Consider `OC[C@H]1O[C@@H](c2n[nH]c(=S)n2-c2cc(Cl)ccc2C(F)(F)F)[C@H](O)[C@@H](n2cc(-c3ccc(Br)c(F)c3F)nn2)[C@H]1O` (single isomer, unassigned) [Example 28], for which the IC50 under setting [1] stood at 6.9 nM.
`Cc1nc([C@@H]2O[C@H](CO)[C@H](O)[C@H](n3cc(-c4ccc(Br)c(F)c4F)nn3)[C@H]2O)n(-c2ccc3ncsc3c2)n1` [Example 1, (2S,3R,4R,5R,6R)-2-(1-(Benzo[d]thiazol-6-yl)-3-methyl-1H-1,2,4-triazol-5-yl)-4-(4-(4-bromo-2,3-difluorophenyl)-1H-1,2,3-triazol-1-yl)-6-(hydroxymethyl)tetrahydro-2H-pyran-3,5-diol]: under setting [2], the IC50 came out at 7 nM.
`Cc1nc([C@@H]2O[C@H](CO)[C@H](O)[C@H](n3cc(-c4ccc(Cl)c(F)c4F)nn3)[C@H]2O)n(-c2ccc3ncsc3c2)n1` [Example 20]: the IC50 (table of Examples 5 to 25) was 9 nM.
With `OC[C@H]1O[C@@H](c2n[nH]c(=S)n2-c2cc(Cl)ccc2C(F)(F)F)[C@H](O)[C@@H](n2cc(-c3ccc(Br)c(F)c3F)nn2)[C@H]1O` (single isomer, unassigned) [Example 27], the IC50 under setting [1] was 76 nM.
Consider `OC[C@H]1O[C@@H](c2nncn2-c2cc(Cl)ccc2C(F)(F)F)[C@H](OCC(F)F)[C@@H](n2cc(-c3ccc(Cl)c(F)c3F)nn2)[C@H]1O` [Example 54], for which the IC50 (table of Examples 30 to 65) was 12 nM.
In the case of `Cc1nc2ccc(-n3cnnc3[C@@H]3O[C@H](CO)[C@H](O)[C@H](n4cc(-c5cc(F)c(Cl)c(F)c5)nn4)[C@H]3OCC(=O)O)cc2s1` [Example 72], the IC50 (table of Examples 69 to 75) worked out at 16 nM.
